Columns and labels:
Assay type in all cases: toxicity, cell-based
[1] = tested on: HEK-293T; assay: Incucyte cell viability with HEK293T; settings: human, 10 µM, compound concentration 10 uM
[2] = tested on: Fibroblast; assay: Incucyte cell viability with human fibroblast; settings: 10 µM, compound concentration 10 uM
[3] = tested on: U2OS; assay: Incucyte cell viability with U2OS; settings: human, 10 µM, compound concentration 10 uM
[4] = 0 h, replicate number 1, timepoint 0 hours
[5] = 0 h, replicate number 2, timepoint 0 hours
[6] = 6 h, replicate number 1, timepoint 6 hours
[7] = 6 h, replicate number 2, timepoint 6 hours
[8] = 12 h, replicate number 1, timepoint 12 hours
[9] = 12 h, replicate number 2, timepoint 12 hours
[10] = 18 h, replicate number 1, timepoint 18 hours
[11] = 18 h, replicate number 2, timepoint 18 hours
[12] = 24 h, replicate number 1, timepoint 24 hours
[13] = 24 h, replicate number 2, timepoint 24 hours
Further: unitless GR value; below 1 slowed growth and below 0 cell loss.

| SMILES | Growth Rate [1, 6] | Growth Rate [1, 7] | Growth Rate [1, 8] | Growth Rate [1, 9] | Growth Rate [1, 10] | Growth Rate [1, 11] | Growth Rate [1, 12] | Growth Rate [1, 13] | Growth Rate [2, 4] | Growth Rate [2, 6] | Growth Rate [2, 7] | Growth Rate [2, 8] | Growth Rate [2, 10] | Growth Rate [2, 12] | Growth Rate [3, 4] | Growth Rate [3, 9] | Growth Rate [3, 11] | Growth Rate [3, 13] | Growth Rate [3, 10] | Growth Rate [3, 7] | also measured |
| --- | --- | --- | --- | --- | --- | --- | --- | --- | --- | --- | --- | --- | --- | --- | --- | --- | --- | --- | --- | --- | --- |
| O=C(Nc1cc(C(F)(F)F)ccc1N1CCN(Cc2ccccn2)CC1)c1ccc(-c2ccncc2)o1 | 0.44 | 0.41 | -0.16 | -0.05 | -0.1 | -0.19 | -0.03 | -0.11 | 0.86 | 0.13 | -0.21 | -0.19 | 0.1 | 0.21 | -0.79 | 0.93 | 0.83 | 0.76 | – | – | Growth Rate [1, 4]: 0.95; Growth Rate [1, 5]: 0.73; Growth Rate [2, 9]: 0.06; Growth Rate [2, 11]: 0.16; Growth Rate [2, 13]: 0.56; Growth Rate [3, 5]: -1 |
| CN[C@@H]1Cc2cccc3[nH]c(=O)n(c23)C1.O=C(O)/C=C\C(=O)O | 0.74 | 0.88 | – | – | 0.9 | 0.98 | 0.79 | – | – | -0.17 | 0.8 | 0.68 | 0.81 | 0.5 | 0.11 | – | 0.85 | 0.98 | 0.71 | – | Growth Rate [3, 5]: -1; Growth Rate [3, 12]: 0.89 |
| Br.Br.c1ncc(CC2CCNCC2)[nH]1 | 0.8 | – | 0.99 | 0.73 | 0.81 | 0.93 | 0.95 | 0.94 | 0.49 | 0.88 | 0.53 | 0.69 | 0.72 | 0.77 | 0.94 | – | – | – | – | – | Growth Rate [1, 4]: 0.53; Growth Rate [1, 5]: 0.07; Growth Rate [2, 5]: 0.06; Growth Rate [2, 9]: 0.81; Growth Rate [2, 11]: 0.93; Growth Rate [2, 13]: 0.76; Growth Rate [3, 6]: 0.57; Growth Rate [3, 8]: 0.9 |
| CC(=O)NCC(=O)N1[C@@H]2CC[C@H]1c1ccc(Nc3ncc(C(F)(F)F)c(NC4CCC4)n3)cc12 [PF-03814735] | -0.73 | -0.88 | -0.54 | -0.65 | -0.45 | -0.48 | -0.31 | -0.41 | -0.04 | – | – | 0.58 | 0.72 | 0.26 | -0.24 | 0.56 | 0.22 | 0.12 | 0.36 | – | Growth Rate [2, 5]: -0.37; Growth Rate [2, 11]: 0.79; Growth Rate [2, 13]: 0.62; Growth Rate [3, 8]: 0.23; Growth Rate [3, 12]: 0.28 |
| COc1ccc2[nH]c(I)c(CCNC(C)=O)c2c1 [IODOMELATONIN] | 0.9 | 0.72 | – | – | – | – | – | – | – | 0.67 | 0.7 | 0.97 | – | – | – | 0.99 | 0.91 | 0.91 | 0.84 | 0.81 | Growth Rate [1, 5]: 0.55; Growth Rate [2, 11]: 0.79; Growth Rate [3, 5]: -0.81 |
| Cc1cccc(S(=O)(=O)N(C)[C@H](C)CCN2CCC(C)CC2)c1.Cl | – | 0.92 | – | – | 0.84 | 0.87 | 0.69 | 0.66 | 0.08 | 0.83 | 0.52 | – | – | – | 0.29 | – | 0.97 | – | – | 0.95 | Growth Rate [1, 5]: 0.65; Growth Rate [3, 5]: -0.95 |
| Cc1ccc(C(C)(O)c2nc3ccccc3s2)c(C)c1 (stereo unspecified) | – | – | 0.99 | – | – | – | – | – | 0.44 | 0.67 | – | – | – | – | -0.06 | – | 0.95 | – | 0.99 | 0.88 | Growth Rate [1, 4]: 0.98; Growth Rate [1, 5]: 0.84; Growth Rate [2, 5]: 0.92 |
| CCCCCCNC(=O)Nc1ccc(S(=O)(=O)Nc2ccc(CCNC[C@H](O)COc3ccc(O)cc3)cc2)cc1 [L-755507] | – | 0.53 | – | 0.94 | – | – | – | – | 0.5 | 0.91 | -0.46 | – | – | – | – | 0.7 | 0.79 | 0.89 | 0.87 | 0.75 | Growth Rate [1, 4]: 0.4; Growth Rate [2, 5]: 0.79; Growth Rate [2, 9]: 0.47; Growth Rate [3, 6]: 0.25; Growth Rate [3, 8]: 0.32; Growth Rate [3, 12]: 0.87 |
| CCCCCCCCc1ccc(CCC(N)(CO)CO)cc1 [FINGOLIMOD] | -0.74 | -0.91 | -0.52 | -0.63 | -0.41 | -0.5 | -0.33 | -0.4 | – | -0.91 | -0.95 | -0.88 | -0.82 | -0.7 | – | -0.31 | – | -0.13 | -0.23 | -0.45 | Growth Rate [2, 9]: -0.71; Growth Rate [2, 11]: -0.59; Growth Rate [2, 13]: -0.42; Growth Rate [3, 6]: -0.97; Growth Rate [3, 8]: -0.74; Growth Rate [3, 12]: 0.13 |
| CC(C)n1cnc2c(Nc3cccc(Cl)c3)nc(N[C@H]3CCCC[C@@H]3N)nc21 | -0.84 | -0.89 | -0.51 | -0.69 | -0.35 | -0.48 | -0.25 | -0.39 | – | 0.31 | -0.31 | 0.73 | 0.33 | 0.41 | – | 0.04 | -0.02 | 0.05 | 0.03 | 0.4 | Growth Rate [2, 9]: 0.36; Growth Rate [3, 6]: -0.04; Growth Rate [3, 8]: -0.12; Growth Rate [3, 12]: 0.06 |
